Test results taken from patent US5716943A, “Phosphinic acid derivatives with metallopeptidase inhibitory activity” (Zambon Group. S.p.A., priority 1995, dated 1998).

Key:
[1] = molecular target: T1, ACE (Oryctolagus cuniculus, UniProt P12822); experiment: ACE-inhibitory activity, FAPGG substrate, absorbance at 340 nm; format: biochemical; conditions: ACE purified by lung rabbit; FAPGG 0.8 mM; 37° C.; compounds of formula I tested as lithium salts
T1 construct: purchased SIGMA; host or cells: rabbit lung
T1 sequence (P12822 34-1310): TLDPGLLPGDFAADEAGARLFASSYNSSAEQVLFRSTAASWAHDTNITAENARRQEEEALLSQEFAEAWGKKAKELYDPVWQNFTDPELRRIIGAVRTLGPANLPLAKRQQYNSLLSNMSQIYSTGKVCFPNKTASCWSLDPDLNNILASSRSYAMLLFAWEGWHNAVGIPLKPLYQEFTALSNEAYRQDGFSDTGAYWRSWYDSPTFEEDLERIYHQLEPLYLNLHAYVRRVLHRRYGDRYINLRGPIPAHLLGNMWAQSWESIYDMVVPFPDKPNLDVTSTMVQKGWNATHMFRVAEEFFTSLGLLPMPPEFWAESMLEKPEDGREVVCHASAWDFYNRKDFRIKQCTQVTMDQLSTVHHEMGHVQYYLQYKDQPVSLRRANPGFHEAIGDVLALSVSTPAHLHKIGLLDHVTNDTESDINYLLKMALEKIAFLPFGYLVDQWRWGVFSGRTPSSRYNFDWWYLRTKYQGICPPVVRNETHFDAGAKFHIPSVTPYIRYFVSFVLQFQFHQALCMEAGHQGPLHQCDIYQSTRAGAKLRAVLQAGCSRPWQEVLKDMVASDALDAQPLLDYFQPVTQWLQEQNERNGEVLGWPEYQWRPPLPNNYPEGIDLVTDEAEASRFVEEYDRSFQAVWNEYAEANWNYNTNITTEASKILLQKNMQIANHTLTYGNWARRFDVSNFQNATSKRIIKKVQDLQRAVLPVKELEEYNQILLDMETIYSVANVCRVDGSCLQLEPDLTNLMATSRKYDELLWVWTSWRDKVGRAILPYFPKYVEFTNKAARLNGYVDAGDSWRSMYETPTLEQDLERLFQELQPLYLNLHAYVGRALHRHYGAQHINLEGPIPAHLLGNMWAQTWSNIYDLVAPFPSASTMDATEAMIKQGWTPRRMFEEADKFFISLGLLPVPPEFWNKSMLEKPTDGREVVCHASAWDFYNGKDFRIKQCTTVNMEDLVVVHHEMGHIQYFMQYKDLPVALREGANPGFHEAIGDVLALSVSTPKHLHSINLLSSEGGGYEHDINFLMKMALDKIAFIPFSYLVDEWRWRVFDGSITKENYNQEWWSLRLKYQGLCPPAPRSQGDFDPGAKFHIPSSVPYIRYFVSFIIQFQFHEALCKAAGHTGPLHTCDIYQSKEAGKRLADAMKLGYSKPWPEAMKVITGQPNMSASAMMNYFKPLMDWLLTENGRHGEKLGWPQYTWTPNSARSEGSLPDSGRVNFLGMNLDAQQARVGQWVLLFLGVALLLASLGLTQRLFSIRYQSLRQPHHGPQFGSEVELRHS
Procedure: b) ACE-inhibitory activity
50 μM of ACE (250 mU/ml purified by lung rabbit, EC 3.4.15.1 SIGMA) were preincubated with 50 μl of the compound of formula I or of the comparison compound in thermostated cuvettes at 37° C.
The reaction was started by adding furylacryloylphenylalanylglycylglycine 0.8 mM (FAPGG-SIGMA).
Contemporaneously, by using a Beckman DU-50 spectrophotometer provided with a program for calculating delta A/minutes and regression coefficients of the enzyme kinetics curves, the absorbance at 340 10^-9 m was recorded in continuo for 5 minutes.
The percentage of enzyme inhibition in the preparations treated with the compounds of formula I or with the comparison compounds with respect to the untreated preparations was expressed as IC50 (nM) value.
(§1) The compounds of formula I were tested in the form of lithium salts.

[2] = molecular target: T2, NEP (Rattus norvegicus, UniProt P07861); experiment: NEP-inhibitory activity in rat kidney cortex membranes, [3H][Leu5]-enkephaline substrate; format: biochemical; conditions: [3H][Leu5]-enkephaline 15 nM, 20 minutes at 30° C., pH 7.4, compounds of formula I tested as lithium salts
T2 construct: evaluated in rat kidney cortex membranes; from tissue; host or cells: kidney cortex membranes of male Sprague-Dawley rats
T2 sequence (P07861 1-750): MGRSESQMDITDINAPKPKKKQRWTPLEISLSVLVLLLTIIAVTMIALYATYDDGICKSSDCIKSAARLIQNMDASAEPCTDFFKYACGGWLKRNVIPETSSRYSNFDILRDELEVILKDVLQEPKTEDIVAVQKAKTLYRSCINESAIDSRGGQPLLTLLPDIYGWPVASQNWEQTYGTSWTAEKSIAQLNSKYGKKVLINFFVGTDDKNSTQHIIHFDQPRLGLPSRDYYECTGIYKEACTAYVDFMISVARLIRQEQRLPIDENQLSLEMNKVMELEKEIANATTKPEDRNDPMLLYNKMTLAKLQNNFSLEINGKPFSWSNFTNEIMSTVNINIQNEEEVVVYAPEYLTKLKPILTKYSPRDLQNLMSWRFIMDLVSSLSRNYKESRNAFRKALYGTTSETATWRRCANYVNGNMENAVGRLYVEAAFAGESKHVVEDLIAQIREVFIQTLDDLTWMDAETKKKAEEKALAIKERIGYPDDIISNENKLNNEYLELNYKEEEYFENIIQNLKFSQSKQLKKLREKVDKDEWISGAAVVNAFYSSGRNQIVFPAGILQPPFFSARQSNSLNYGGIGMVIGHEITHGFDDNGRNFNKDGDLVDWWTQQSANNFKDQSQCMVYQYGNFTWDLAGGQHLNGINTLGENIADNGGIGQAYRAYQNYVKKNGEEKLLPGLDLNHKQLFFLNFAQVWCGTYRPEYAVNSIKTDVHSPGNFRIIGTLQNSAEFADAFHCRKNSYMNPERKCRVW
Procedure: a) NEP-inhibitory activity
The NEP-inhibitory activity was evaluated in rat kidney cortex membranes prepared according to the procedure described by T. Maeda et al. in Biochim biophys. Acta 1983, 731 (1), 115-120.
By working at 0°-4° C. kidneys were removed from male Sprague-Dawley rats weighing approximately 300 g.
Kidney cortex was carefully dissected, finely minced and suspended in a homogenization buffer (10 mM sodium phosphate pH 7.4 containing 1 mM MgCl2, 30 mM NaCl, 0.02% NaN3) 1:15 weight/volume.
The tissue was then homogenized for 30 seconds by using an Ultra-Turrax homogenizer.
Approximately 10 ml of homogenate were layered over 10 ml of sucrose (41% weight/volume) and centrifuged at 31200 rpm for 30 minutes at 4° C. in a fixed angle rotor.
The membranes were collected from the buffer/sucrose interface, washed twice with 50 mM TRIS/HCl buffer (pH 7.4) and resuspended into the same buffer for storage.
The membranes were stored in small aliquots at -80° C. until use.
The NEP-inhibitory activity was evaluated according to the method described by C. Llorens et al., in Eur. I. Pharmacol., 69, (1981), 113-116, as reported hereinafter.
Aliquots of the membrane suspension prepared as above described (concentration 5 μg/ml of proteins) were preincubated in the presence of an aminopeptidase inhibitor (Bestatin--1 mM) for 10 minutes at 30° C.
[^3 H][Leu^5 ]-enkephaline (15 nM) and buffer TRIS/HCl pH 7.4 (50 mM) were added in order to obtain a final volume of 100 μl.
Incubation (20 minutes at 30° C.) was stopped by adding HCl 0.1 M (100 μl).
The formation of the metabolite [^3 H]Tyr-Gly-Gly was quantified, after separation of the unreacted substrate by chromatography on polystirene columns (Porapak Q), by measuring the relative radioactivity through liquid scintillation.
The percentage of inhibition of the metabolite formation in the membrane preparations treated with the compounds of formula I and with the comparative compounds with respect to the untreated membrane preparations was expressed as IC50 (nM) value.
as §1

| ACE-inhibitory activity IC50 (nM) [1] | IC50 [2] | NEP-inhibitory activity IC50 (nM) [2] | IC50 [1] | Structure (SMILES) |
| --- | --- | --- | --- | --- |
| not active | 160 nM | – | – | COCCOCC(CC1(C(=O)N[C@H]2CC[C@@H](C(=O)O)CC2)CCCC1)C(=O)O (relative stereo) [Candoxatrilat, 3-[1-[(Cis-4-carboxycyclohexyl)carbamoyl]cyclopentyl]-2-(2-methoxyethoxymethyl)-propionic acid, reference compound] |
| – | – | not active | – | C[C@H](CS)C(=O)N1CCC[C@H]1C(=O)O [Captopril, reference compound] |
| – | 36 nM | – | 6.4 nM | CC(C)CC(CP(=O)(O)CNC(=O)OCc1ccccc1)C(=O)N[C@@H](Cc1ccc(-c2ccccc2)cc1)C(=O)O (stereo partly drawn) [Compound 2, N-[3-[(benzyloxycarbonylaminomethyl)(hydroxy)phosphinyl]-2-isobutyl-propionyl]-(1,1'-biphenyl-4-yl)-L-alanine] |
| – | 252 nM | – | 30 nM | O=C(NCP(=O)(O)CC(Cc1ccccc1)C(=O)N[C@@H](Cc1ccc(-c2ccccc2)cc1)C(=O)O)OCc1ccccc1 (stereo partly drawn) [Compound 3, N-[3-[(benzyloxycarbonylaminomethyl)(hydroxy)phosphinyl]-2-benzyl-propionyl]-(1,1'-biphenyl-4-yl)-L-alanine] |
| – | 335 nM | – | 12 nM | O=C(NCP(=O)(O)CC(Cc1cccs1)C(=O)N[C@@H](Cc1ccc(-c2ccccc2)cc1)C(=O)O)OCc1ccccc1 (stereo partly drawn) [Compound 4, N-[3-[(benzyloxycarbonylaminomethyl)(hydroxy)phosphinyl]-2-(2-thienylmethyl)propionyl]-(1,1'-biphenyl-4-yl)-L-alanine] |
| – | 48.5 nM | – | 25 nM | CC(C)CC(CP(=O)(O)CNC(=O)OCc1ccccc1)C(=O)N[C@@H](Cc1ccc(-c2nccs2)cc1)C(=O)O (stereo partly drawn) [Compound 5, N-[3-[(benzyloxycarbonylaminomethyl)(hydroxy)phosphinyl]-2-isobutyl-propionyl]-[4-(2-thiazolyl)-phenyl]-L-alanine] |
